We go through 35 compounds from US9283222B2 (priority 2006, dated 2016).

Molecules are shown by their SMILES. Like-named read-outs stand apart in the source and are kept apart here.

In assay [1] the target is Recombinant Human Poly(ADP-Ribose) Polymerase (PARP), PARP-1 (Homo sapiens (Human), UniProt P09874). To be noted: read-out: PARP-1 (Ki).
Assay [2] addresses PARP in C41 cells (Homo sapiens (Human), UniProt P09874).
Setting [3] is: Table 2, A2 is C1-alkyl versus no A2 (bond).
Setting [4] is: Table 3, H analogs versus para-F analogs.
Setting [5] is: Table 3, C41 cells, ratio to comparator EC50.
Where [6] appears, read: Table 1, text calls the values EC50s.

Sequence of PARP in C41 cells (P09874 whole entry): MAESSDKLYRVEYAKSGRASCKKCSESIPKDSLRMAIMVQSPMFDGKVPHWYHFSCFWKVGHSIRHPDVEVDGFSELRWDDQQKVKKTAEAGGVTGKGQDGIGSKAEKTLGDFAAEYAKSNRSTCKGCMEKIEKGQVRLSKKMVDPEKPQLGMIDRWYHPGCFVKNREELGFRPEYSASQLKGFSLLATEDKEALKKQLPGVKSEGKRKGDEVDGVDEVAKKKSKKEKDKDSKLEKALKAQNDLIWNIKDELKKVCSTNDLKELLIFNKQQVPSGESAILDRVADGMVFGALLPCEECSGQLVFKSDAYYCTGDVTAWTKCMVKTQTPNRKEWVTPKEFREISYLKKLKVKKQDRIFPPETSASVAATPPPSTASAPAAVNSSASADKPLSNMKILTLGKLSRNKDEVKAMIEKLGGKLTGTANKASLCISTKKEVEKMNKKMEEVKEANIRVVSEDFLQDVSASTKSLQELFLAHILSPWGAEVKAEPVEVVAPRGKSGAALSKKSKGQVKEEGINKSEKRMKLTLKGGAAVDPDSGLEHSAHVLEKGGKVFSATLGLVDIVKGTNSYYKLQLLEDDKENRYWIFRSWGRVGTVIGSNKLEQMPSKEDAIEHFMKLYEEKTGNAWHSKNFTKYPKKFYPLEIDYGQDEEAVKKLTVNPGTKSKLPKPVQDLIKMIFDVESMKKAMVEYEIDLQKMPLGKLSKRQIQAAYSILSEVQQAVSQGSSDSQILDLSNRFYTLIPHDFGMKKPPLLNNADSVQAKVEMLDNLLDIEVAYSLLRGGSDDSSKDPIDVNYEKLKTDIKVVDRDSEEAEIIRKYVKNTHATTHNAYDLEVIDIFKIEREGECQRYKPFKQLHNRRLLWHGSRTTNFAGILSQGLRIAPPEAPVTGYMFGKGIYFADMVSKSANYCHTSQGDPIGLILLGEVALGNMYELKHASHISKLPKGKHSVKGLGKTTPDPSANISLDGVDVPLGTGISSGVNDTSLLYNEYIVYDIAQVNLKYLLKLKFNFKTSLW
Sequence of Recombinant Human Poly(ADP-Ribose) Polymerase (PARP), PARP-1 (P09874 whole entry): as above

As for `O=C1CCN1c1cc(Cc2n[nH]c(=O)c3c2CCCC3)ccc1F`, in assay [1] (setting [3]), the Ki turned out to be 6 nM. For the same compound, in assay [2] (Table 2, C41 cells, ratio to comparator EC50), the “Cell Ratio EC50” value was found to be 16.4.

Turning to `O=C1CCC(=O)N1c1cccc(Cc2n[nH]c(=O)c3c2CCCC3)c1`, in assay [1] (setting [4]), the Ki was 2 nM. In assay [2] (setting [5]), the “Cell EC50 ratio” value turned out to be 1.7.

Regarding `O=C1CCC(=O)N1c1cc(Cc2n[nH]c(=O)c3c2CCCC3)ccc1F`, the inhibition constant (Ki) in assay [1] (setting [4]) stood at 1.1 nM. Further, in assay [2] (setting [5]), the “Cell EC50 ratio” value was determined as 0.19.

Take `O=C(CCN1CCCCC1)Nc1cc(Cc2n[nH]c(=O)c3c2CCCC3)ccc1F`: the inhibitory constant (Ki) in assay [1] (setting [4]) was determined as 18.4 nM. Also, the “Cell EC50 ratio” value in assay [2] came out at 5.6.

For `CN(C)CCN(C)C(=O)c1cccc(Cc2n[nH]c(=O)c3c2CCCC3)c1`, the Ki in assay [1] (setting [4]) came out at 13 nM. Besides, in assay [2] (setting [5]), the “Cell EC50 ratio” value worked out at 3.

For `O=C(NC1CCN(C(=O)c2cscn2)CC1)c1cc(Cc2n[nH]c(=O)c3c2NCCC3)ccc1F` [Example 731, 2-fluoro-5-[(5-oxo-1,2,3,4,5,6-hexahydropyrido[2,3-d]pyridazin-8-yl)methyl]-N-[1-(1,3-thiazol-4-ylcarbonyl)piperidin-4-yl]benzamide], the Ki in assay [1] (setting [6]) worked out at 11 nM.

`O=C(c1cncnc1)N1CCN(C(=O)c2cc(Cc3n[nH]c(=O)c4c3CCCC4)ccc2F)CC1` [Example 733, 4-(4-fluoro-3-{[4-(pyrimidin-5-ylcarbonyl)piperazin-1-yl]carbonyl}benzyl)-5,6,7,8-tetrahydrophthalazin-1(2H)-one]: the Ki in assay [1] (setting [6]) is 1.7 nM.

Take `O=C(NC1CCN(C(=O)c2cn[nH]c2)CC1)c1cc(Cc2n[nH]c(=O)c3c2NCCC3)ccc1F` [Example 734, 2-fluoro-5-[(5-oxo-1,2,3,4,5,6-hexahydropyrido[2,3-d]pyridazin-8-yl)methyl]-N-[1-(1H-pyrazol-4-ylcarbonyl)piperidin-4-yl]benzamide]: in assay [1] (setting [6]), the Ki was found to be 9 nM.

For `O=C(c1ccc(O)nc1)N1CCN(C(=O)c2cc(Cc3n[nH]c(=O)c4c3CCCC4)ccc2F)CC1` [Example 735, 4-[4-fluoro-3-({4-[(6-hydroxypyridin-3-yl)carbonyl]piperazin-1-yl}carbonyl)benzyl]-5,6,7,8-tetrahydrophthalazin-1(2H)-one], in assay [1] (setting [6]), the Ki was found to be 1.5 nM.

Take `O=C(NC1CCN(C(=O)c2ccccn2)CC1)c1cc(Cc2n[nH]c(=O)c3c2NCCC3)ccc1F` [Example 736, 2-fluoro-5-[(5-oxo-1,2,3,4,5,6-hexahydropyrido[2,3-d]pyridazin-8-yl)methyl]-N-[1-(pyridin-2-ylcarbonyl)piperidin-4-yl]benzamide]: the Ki in assay [1] (setting [6]) worked out at 4 nM.

For the compound `O=C(NC1CCN(C(=O)c2ccncc2)CC1)c1cc(Cc2n[nH]c(=O)c3c2NCCC3)ccc1F` [Example 738, 2-fluoro-N-(1-isonicotinoylpiperidin-4-yl)-5-[(5-oxo-1,2,3,4,5,6-hexahydropyrido[2,3-d]pyridazin-8-yl)methyl]benzamide], the inhibition constant Ki in assay [1] (setting [6]) was 14 nM.

Consider `O=C(c1ccc2ccccc2n1)N1CCN(C(=O)c2cc(Cc3n[nH]c(=O)c4c3CCCC4)ccc2F)CC1` [Example 739, 4-(4-fluoro-3-{[4-(quinolin-2-ylcarbonyl)piperazin-1-yl]carbonyl}benzyl)-5,6,7,8-tetrahydrophthalazin-1(2H)-one], for which the inhibition constant Ki in assay [1] (setting [6]) is 1.3 nM.

As for `N[C@H]1CCCC[C@@H]1NC(=O)c1cc(Cc2n[nH]c(=O)c3c2NCCC3)ccc1F` [Example 740, N-[(1S,2S)-2-aminocyclohexyl]-2-fluoro-5-[(5-oxo-1,2,3,4,5,6-hexahydropyrido[2,3-d]pyridazin-8-yl)methyl]benzamide], the Ki in assay [1] (setting [6]) was determined as 52 nM.

On to `CCN(CCNC(=O)c1ccccc1)C(=O)c1cc(Cc2n[nH]c(=O)c3c2CCCC3)ccc1F` [Example 742, N-[2-(benzoylamino)ethyl]-N-ethyl-2-fluoro-5-[(4-oxo-3,4,5,6,7,8-hexahydrophthalazin-1-yl)methyl]benzamide], for which the Ki in assay [1] (setting [6]) came out at 1.8 nM.

Turning to `CCN(CCNC(=O)N1CCCC1)C(=O)c1cc(Cc2n[nH]c(=O)c3c2CCCC3)ccc1F` [Example 743, N-[2-(ethyl{2-fluoro-5-[(4-oxo-3,4,5,6,7,8-hexahydrophthalazin-1-yl)methyl]benzoyl}amino)ethyl]pyrrolidine-1-carboxamide], the Ki in assay [1] (setting [6]) was 2.7 nM.

On to `O=C(NC1CCN(c2ccccn2)CC1)c1cc(Cc2n[nH]c(=O)c3c2NCCC3)ccc1F` [Example 745, 2-fluoro-5-[(5-oxo-1,2,3,4,5,6-hexahydropyrido[2,3-d]pyridazin-8-yl)methyl]-N-(1-pyridin-2-ylpiperidin-4-yl)benzamide], for which the Ki in assay [1] (setting [6]) amounted to 8 nM.

`O=C(NC1CCN(C(=O)c2cc(Cc3n[nH]c(=O)c4c3NCCC4)ccc2F)CC1)c1cccnc1` [Example 747, N-(1-{2-fluoro-5-[(5-oxo-1,2,3,4,5,6-hexahydropyrido[2,3-d]pyridazin-8-yl)methyl]benzoyl}piperidin-4-yl)nicotinamide]: the Ki in assay [1] (setting [6]) came to 1.5 nM.

As to `O=C(NC1CCN(C(=O)c2cc(Cc3n[nH]c(=O)c4c3NCCC4)ccc2F)CC1)c1ccncc1` [Example 748, N-(1-{2-fluoro-5-[(5-oxo-1,2,3,4,5,6-hexahydropyrido[2,3-d]pyridazin-8-yl)methyl]benzoyl}piperidin-4-yl)isonicotinamide], the Ki in assay [1] (setting [6]) was determined as 1 nM.

Consider `O=C(NC1CCN(C(=O)c2cc(Cc3n[nH]c(=O)c4c3NCCC4)ccc2F)CC1)c1ccc2cn[nH]c2c1` [Example 749, N-(1-{2-fluoro-5-[(5-oxo-1,2,3,4,5,6-hexahydropyrido[2,3-d]pyridazin-8-yl)methyl]benzoyl}piperidin-4-yl)-1H-indazole-6-carboxamide], for which the Ki in assay [1] (setting [6]) amounted to 1.4 nM.

As to `O=C(NC1CCN(C(=O)c2cc(Cc3n[nH]c(=O)c4c3NCCC4)ccc2F)CC1)c1ccco1` [Example 750, N-(1-{2-fluoro-5-[(5-oxo-1,2,3,4,5,6-hexahydropyrido[2,3-d]pyridazin-8-yl)methyl]benzoyl}piperidin-4-yl)-2-furamide], the Ki in assay [1] (setting [6]) came out at 1.1 nM.

With `O=C(NC1CCN(C(=O)c2cc(Cc3n[nH]c(=O)c4c3NCCC4)ccc2F)CC1)c1cscn1` [Example 751, N-(1-{2-fluoro-5-[(5-oxo-1,2,3,4,5,6-hexahydropyrido[2,3-d]pyridazin-8-yl)methyl]benzoyl}piperidin-4-yl)-1,3-thiazole-4-carboxamide], the Ki in assay [1] (setting [6]) was 1.5 nM.

`CN(C(=O)C1CCC1)c1cc(Cc2n[nH]c(=O)c3c2CCCC3)ccc1F` [Example 753, N-{2-fluoro-5-[(4-oxo-3,4,5,6,7,8-hexahydrophthalazin-1-yl)methyl]phenyl}-N-methylcyclobutanecarboxamide]: in assay [1] (setting [6]), the inhibition constant (Ki) was determined as 92 nM.

For the compound `Cc1nc2cc(C(=O)N3CCN(C(=O)c4cc(Cc5n[nH]c(=O)c6c5CCCC6)ccc4F)CC3)ccc2[nH]1` [Example 754, 4-[4-fluoro-3-({4-[(2-methyl-1H-benzimidazol-5-yl)carbonyl]piperazin-1-yl}carbonyl)benzyl]-5,6,7,8-tetrahydrophthalazin-1(2H)-one], the Ki in assay [1] (setting [6]) was 0.6 nM.

For `O=C(c1cc(Cc2n[nH]c(=O)c3c2CCCC3)ccc1F)N1CCN(C(=O)c2cccnc2Cl)CC1` [Example 755, 4-[3-({4-[(2-chloropyridin-3-yl)carbonyl]piperazin-1-yl}carbonyl)-4-fluorobenzyl]-5,6,7,8-tetrahydrophthalazin-1(2H)-one], the Ki in assay [1] (setting [6]) amounted to 1.5 nM.

As to `O=C(c1cc(Cc2n[nH]c(=O)c3c2CCCC3)ccc1F)N1CCN(c2cccnc2)CC1` [Example 756, 4-{4-fluoro-3-[(4-pyridin-3-ylpiperazin-1-yl)carbonyl]benzyl}-5,6,7,8-tetrahydrophthalazin-1(2H)-one], in assay [1] (setting [6]), the Ki was found to be 0.9 nM.

In the case of `O=C(c1cc(Cc2n[nH]c(=O)c3c2CCCC3)ccc1F)N1CCN(c2cncnc2)CC1` [Example 757, 4-{4-fluoro-3-[(4-pyrimidin-5-ylpiperazin-1-yl)carbonyl]benzyl}-5,6,7,8-tetrahydrophthalazin-1(2H)-one], the inhibitory constant (Ki) in assay [1] (setting [6]) is 1.2 nM.

For the compound `O=C(NC1CCN(C(=O)c2cc(Cc3n[nH]c(=O)c4c3NCCC4)ccc2F)CC1)c1cn[nH]c1` [Example 758, N-(1-{2-fluoro-5-[(5-oxo-1,2,3,4,5,6-hexahydropyrido[2,3-d]pyridazin-8-yl)methyl]benzoyl}piperidin-4-yl)-1H-pyrazole-4-carboxamide], the Ki in assay [1] (setting [6]) worked out at 1.4 nM.

In the case of `CN1CCN(C(=O)c2cc(Cc3n[nH]c(=O)c4c3CCCC4)ccc2F)CC1=O` [Example 759, 4-{4-fluoro-3-[(4-methyl-3-oxopiperazin-1-yl)carbonyl]benzyl}-5,6,7,8-tetrahydrophthalazin-1(2H)-one], in assay [1] (setting [6]), the Ki is 0.3 nM.

As to `CCN(CCNC(=O)C1CC1)C(=O)c1cc(Cc2n[nH]c(=O)c3c2CCCC3)ccc1F` [Example 761, N-{2-[(cyclopropylcarbonyl)amino]ethyl}-N-ethyl-2-fluoro-5-[(4-oxo-3,4,5,6,7,8-hexahydrophthalazin-1-yl)methyl]benzamide], the Ki in assay [1] (setting [6]) stood at 0.6 nM.

Take `CCN(CCNC(=O)c1c(F)cccc1F)C(=O)c1cc(Cc2n[nH]c(=O)c3c2CCCC3)ccc1F` [Example 762, N-{2-[(2,6-difluorobenzoyl)amino]ethyl}-N-ethyl-2-fluoro-5-[(4-oxo-3,4,5,6,7,8-hexahydrophthalazin-1-yl)methyl]benzamide]: in assay [1] (setting [6]), the inhibition constant Ki was found to be 1 nM.

Consider `CCN(CCNC(=O)c1cccnc1)C(=O)c1cc(Cc2n[nH]c(=O)c3c2CCCC3)ccc1F` [Example 763, N-[2-(ethyl{2-fluoro-5-[(4-oxo-3,4,5,6,7,8-hexahydrophthalazin-1-yl)methyl]benzoyl}amino)ethyl]nicotinamide], for which the Ki in assay [1] (setting [6]) was found to be 1 nM.

Consider `O=C1CCCN1c1cc(-c2n[nH]c(=O)c3c2CCCC3)ccc1F` [drawing 8], for which the Ki in assay [1] (setting [3]) stood at 191 nM.

For the compound `O=C(CCN1CCCCC1)Nc1cccc(Cc2n[nH]c(=O)c3c2CCCC3)c1` [drawing 24], the Ki in assay [1] (setting [4]) is 280 nM.

Take `O=C(c1cccc(Cc2n[nH]c(=O)c3c2CCCC3)c1)N1CCN(c2ccccc2F)CC1` [drawing 38]: in assay [1] (setting [4]), the Ki was found to be 4 nM.

Consider `NC(=O)C1CCCN(C(=O)c2cccc(Cc3n[nH]c(=O)c4c3CCCC4)c2)C1` (stereo not shown) [drawing 44], for which the inhibitory constant (Ki) in assay [1] (setting [4]) is 19 nM.

What is called Ki is the dissociation constant of the complex between target and ligand, obtained from inhibition or displacement.
